Experimental findings from ChEMBL document CHEMBL1122528, “Synthesis and evaluation of furan, thiophene, and azole bis[(carbamoyloxy)methyl] derivatives as potential antineoplastic agents” (J Med Chem, 1984) are described below.

Activity calls are given as the source filed them. No cut-off for these calls is given here.

This experiment concerns P388. The experiment in a line: Compound was tested for antileukemic activity against murine P388 lymphocytic leukemia; Inactive. The format is functional, cell-based. Particulars: Mus musculus.
As for `CNC(=O)OCc1snc(-c2ccccc2)c1COC(=O)NC`, the result was inactive.

On to `CNC(=O)OCc1nc(-c2ccccc2)sc1COC(=O)NC`, for which the outcome was inactive.

As to `CNC(=O)OCc1c(C)sc(-c2ccccc2)c1COC(=O)NC`, the outcome was inactive.

Turning to `CNC(=O)OCc1nc(-c2ccccc2)oc1COC(=O)NC`, the result was inactive.

As to `CNC(=O)OCc1c(COC(=O)NC)c(C)n(-c2ccccc2)c1C`, the result was inactive.

As for `CNC(=O)OCc1c(COC(=O)NC)c(-c2ccc(C)cc2)n(C)c1C`, the outcome was inactive.

Consider `CNC(=O)OCc1cn(-c2ccc(Cl)c(Cl)c2)nc1COC(=O)NC`, for which the result was inactive.

As for `CNC(=O)OCc1onc(-c2ccccc2)c1COC(=O)NC`, the result was inactive.

Take `CNC(=O)OCc1nnn(-c2ccccc2)c1COC(=O)NC`: the outcome was inactive.
